{"source": "paper PMC3742231", "about": "(International Journal of Molecular Sciences, 2013)", "key": {"CYP2B6": {"molecular_target": "T1, CYP2B6 (Homo sapiens, UniProt P20813)", "T1 sequence (P20813 1-491)": "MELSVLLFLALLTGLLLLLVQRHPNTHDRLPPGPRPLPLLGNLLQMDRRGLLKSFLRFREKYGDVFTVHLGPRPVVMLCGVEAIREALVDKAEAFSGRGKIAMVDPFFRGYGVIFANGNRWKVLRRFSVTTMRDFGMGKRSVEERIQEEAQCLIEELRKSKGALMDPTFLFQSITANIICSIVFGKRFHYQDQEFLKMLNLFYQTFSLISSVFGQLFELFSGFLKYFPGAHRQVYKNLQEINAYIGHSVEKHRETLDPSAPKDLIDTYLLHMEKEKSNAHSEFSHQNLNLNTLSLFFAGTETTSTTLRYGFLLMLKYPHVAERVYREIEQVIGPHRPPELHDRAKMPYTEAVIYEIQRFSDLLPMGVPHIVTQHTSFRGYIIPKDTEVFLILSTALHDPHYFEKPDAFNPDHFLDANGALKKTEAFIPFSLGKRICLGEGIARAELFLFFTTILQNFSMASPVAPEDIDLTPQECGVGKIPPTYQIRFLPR", "assay": "biochemical", "method": "(§1) Human liver microsomes were prepared and pooled from ten human livers (HL20–24,28–32) as previously described. Human liver samples were obtained from the University Hospital of Oulu as surplus tissue from cadaver kidney transplant donors. The collection of surplus tissue was approved by the Ethics Committee of the Medical Faculty of the University of Oulu, Finland. All donors were Caucasians ranging in age from 21 to 62 years; four were female and six were male. Detailed information on each donor has been published previously. Protein concentrations were measured using the Bradford method.\n(§2) In vitro inhibition of CYP isoforms was first assessed using the N-in-one approach (also called the cocktail approach). CYP-selective substrates and reactions are listed in Table 1; concentrations were roughly at or below the respective Michaelis-Menten coefficients. […] A Micromass LCT time-of-flight high-resolution mass spectrometer (Micromass Ltd., Manchester, UK) equipped with a Z-spray electrospray ionization source was used for the monitoring of CYP-selective reactions. Integrated mass chromatogram peak areas were normalized versus internal standards before comparing metabolites in different preparations. More details of the assay are available in previous publications.\n(§3) Dixon, Lineweaver-Burk, Hanes, and Hofstee plots were used for the analysis of the type of inhibition."}, "CYP2C19": {"molecular_target": "CYP2C19 (Homo sapiens, UniProt P33261)", "sequence (P33261 whole entry)": "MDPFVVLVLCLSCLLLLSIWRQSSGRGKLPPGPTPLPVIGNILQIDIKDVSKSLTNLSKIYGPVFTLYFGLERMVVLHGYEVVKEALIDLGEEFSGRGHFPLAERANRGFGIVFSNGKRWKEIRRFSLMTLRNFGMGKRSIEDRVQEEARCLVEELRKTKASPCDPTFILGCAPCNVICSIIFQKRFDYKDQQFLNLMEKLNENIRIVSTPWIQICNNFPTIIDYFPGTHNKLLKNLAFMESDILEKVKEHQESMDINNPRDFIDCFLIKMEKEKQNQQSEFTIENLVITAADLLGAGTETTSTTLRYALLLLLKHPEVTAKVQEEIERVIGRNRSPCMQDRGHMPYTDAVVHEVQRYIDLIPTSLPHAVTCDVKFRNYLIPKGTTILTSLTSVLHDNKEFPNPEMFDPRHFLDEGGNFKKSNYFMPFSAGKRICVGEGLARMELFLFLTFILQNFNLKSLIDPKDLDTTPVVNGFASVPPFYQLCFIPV", "assay": "biochemical", "conditions": "for IC50: human liver microsomes, probe 2 μM", "method": "as §1, §2, §3"}, "CYP2A6": {"molecular_target": "T2, CYP2A6 (Homo sapiens, UniProt P11509)", "T2 sequence (P11509 1-494)": "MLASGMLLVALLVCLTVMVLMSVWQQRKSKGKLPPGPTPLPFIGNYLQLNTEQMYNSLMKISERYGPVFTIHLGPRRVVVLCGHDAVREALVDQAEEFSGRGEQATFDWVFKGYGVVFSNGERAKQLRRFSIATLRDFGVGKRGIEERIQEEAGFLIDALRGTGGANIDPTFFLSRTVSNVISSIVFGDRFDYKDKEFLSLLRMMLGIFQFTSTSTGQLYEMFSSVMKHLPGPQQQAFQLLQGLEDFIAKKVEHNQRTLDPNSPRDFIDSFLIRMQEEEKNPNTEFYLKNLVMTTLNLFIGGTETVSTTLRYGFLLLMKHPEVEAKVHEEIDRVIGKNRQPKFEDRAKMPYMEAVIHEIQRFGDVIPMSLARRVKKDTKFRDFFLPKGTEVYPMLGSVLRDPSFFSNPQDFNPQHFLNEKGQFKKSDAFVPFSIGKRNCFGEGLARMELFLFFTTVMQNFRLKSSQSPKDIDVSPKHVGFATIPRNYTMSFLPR", "assay": "N-in-one CYP inhibition assay in human liver microsomes", "method": "as §1, §2"}}}
{"smiles": "OCCOc1ccc(/C(=C(/CCCl)c2ccccc2)c2ccccc2)cc1", "note": "[Ospemifene]", "values": [{"measurement": "IC50", "setting": "CYP2B6", "result": 7.8, "unit": "µM"}, {"measurement": "Type of inhibition", "setting": "CYP2B6; results not shown", "result": "competitive"}, {"measurement": "IC50", "setting": "CYP2C19; IC50, Omeprazole 5-hydroxylation", "result": 22.5, "unit": "µM"}, {"measurement": "IC50", "setting": "CYP2C19; IC50, Omeprazole demethylation", "result": 47.2, "unit": "µM"}, {"measurement": "Type of inhibition", "setting": "CYP2C19; results not shown", "result": "noncompetitive"}, {"measurement": "IC50", "setting": "CYP2A6", "result": "> 100", "unit": "µM"}]}
